Source: patent US20230078265A1, “METHODS AND COMPOSITIONS FOR EDITING NUCLEOTIDE SEQUENCES” (The Broad Institute, Inc., priority 2019, published 2023)

What was measured:
DNA = details: mutation relative to canonical SpCas9, SEQ ID NO: 18; cited from earlier work
[1] = system: 5′-Cy5-labeled dsDNA substrates; assay: In vitro TPRT (prime editing) primer extension assay, denaturing urea PAGE; type: biochemical; details: standard gRNA (gRNA_0, lane 3), substrates not pre-nicked
Procedure: All reactions are with M-MLV RT.
Fluorescently labeled (Cy5) DNA targets were used as substrates, and were pre-nicked in this set of experiments. […] Then, the fluorescently labeled DNA substrate was added along with dNTPs and the RT enzyme. After 1 hour of incubation at 37° C., the reaction products were analyzed by denaturing urea-polyacrylamide gel electrophoresis (PAGE).
However, the DNA substrates are not pre-nicked in this set of experiments. […] The reaction products were analyzed by denaturing urea-polyacrylamide gel electrophoresis (PAGE).
Reactions were incubated at 37° C. for 1 hour, then analyzed by denaturing urea PAGE and visualized for Cy5 fluorescence.
Reactions were allowed to proceed at 37° C. for 1 hour prior to separation by denaturing urea PAGE and visualization by Cy5 fluorescence.

In the case of “H840A: SpCas9 mutation relative to SEQ ID NO: 18”, the “Function/Characteristic (as reported)” value (DNA) is given as “Nickase mutant which cleaves the non-protospacer”.

For “1099-1368 deletion: SpCas9 mutation relative to SEQ ID NO: 18”, the “Function/Characteristic (as reported)” value (DNA) is listed as “No nuclease activity”.

In the case of “Cas9 nickase: Cas9 nickase (SpyCas9 H840A mutant)”, the “cleavage of the DNA strand by the nickase” value [1] was “efficiently cleaves”.

In the case of “D10A: SpCas9 mutation relative to SEQ ID NO: 18”, the “Function/Characteristic (as reported)” value (DNA) is given as “Nickase mutant which cleaves the protospacer”.
